In ChEMBL document CHEMBL5120918, “Marinoquinolones and Marinobactoic Acid: Antimicrobial and Cytotoxic ortho-Dialkylbenzene-Class Metabolites Produced by a Marine Obligate Gammaproteobacterium of the Genus Marinobacterium” (J Nat Prod, 2022):
≈ marks a conversion by molar mass, not a printed value.

How the values were obtained:
[1] = tested on: P388; test: Cytotoxicity against mouse P388 cells assessed as cell growth inhibition measured after 48 hrs by MTT assay; assay type: functional, cell-based; conditions: P388, 48 h
[2] = tested on: Kocuria rhizophila; test: Antimicrobial activity against Kocuria rhizophila ATCC9341 assessed as inhibition of bacterial growth incubated for 48 hrs by liquid microculture method; assay type: functional
[3] = tested on: Escherichia coli; test: Antimicrobial activity against Escherichia coli NIHJ JC-2 assessed as inhibition of bacterial growth incubated for 48 hrs by liquid microculture method; assay type: functional
[4] = tested on: Staphylococcus aureus; test: Antimicrobial activity against Staphylococcus aureus FDA209P JC-1 assessed as inhibition of bacterial growth incubated for 48 hrs by liquid microculture method; assay type: functional
[5] = tested on: Trichophyton rubrum; test: Antimicrobial activity against Trichophyton rubrum NBRC5467 assessed as inhibition of […] growth incubated for 48 hrs by liquid microculture method; assay type: functional
[6] = tested on: Agrobacterium tumefaciens; test: Antimicrobial activity against Rhizobium radiobacter NBRC14554 assessed as inhibition of bacterial growth incubated for 48 hrs by liquid microculture method; assay type: functional
[7] = tested on: Colletotrichum gloeosporioides; test: Antimicrobial activity against Glomerella cingulata NBRC5907 assessed as inhibition of […] growth incubated for 48 hrs by liquid microculture method; assay type: functional
[8] = tested on: Candida albicans; test: Antimicrobial activity against Candida albicans NBRC0197 assessed as inhibition of […] growth incubated for 48 hrs by liquid microculture method; assay type: functional

SMILES	MIC [2]	MIC [3]	MIC [4]	MIC [5]	MIC [6]	MIC [7]	MIC [8]	IC50 [1]
COc1cccc2c1C(=O)c1c(O)c3c(c(O)c1C2=O)C[C@@](O)(C(=O)CO)C[C@@H]3O[C@H]1C[C@H](N)[C@H](O)[C@H](C)O1 [DOXORUBICIN]	–	–	–	–	–	–	–	0.08 µM
C/C=C/c1ccccc1/C=C/C=C/C(O)Cc1cc(=O)c2ccccc2[nH]1 (racemic)	6.3 µg/mL (≈ 17.6 µM)	> 100 µg/mL	13 µg/mL (≈ 36.4 µM)	6.3 µg/mL (≈ 17.6 µM)	50 µg/mL (≈ 140 µM)	13 µg/mL (≈ 36.4 µM)	> 100 µg/mL	7.3 µM
C/C=C/c1ccccc1C/C=C/C=C\CC(=O)O	13 µg/mL (≈ 53.6 µM)	> 100 µg/mL	6.3 µg/mL (≈ 26 µM)	13 µg/mL (≈ 53.6 µM)	25 µg/mL (≈ 103 µM)	6.3 µg/mL (≈ 26 µM)	> 100 µg/mL	1.2 µM

The remaining molecules from weak to strong by MIC [5], led by results:

MIC [2]	MIC [3]	MIC [4]	MIC [5]	MIC [6]	MIC [7]	MIC [8]	SMILES	IC50 [1]
13 µg/mL (≈ 38.1 µM)	> 100 µg/mL	25 µg/mL (≈ 73.2 µM)	13 µg/mL (≈ 38.1 µM)	50 µg/mL (≈ 146 µM)	25 µg/mL (≈ 73.2 µM)	> 100 µg/mL	C/C=C/c1ccccc1C/C=C/C=C\Cc1cc(=O)c2ccccc2[nH]1	10 µM
–	–	–	0.78 µg/mL (≈ 0.844 µM)	–	1.3 µg/mL (≈ 1.41 µM)	0.78 µg/mL (≈ 0.844 µM)	C[C@@H]1[C@H](O)[C@@H](C)/C=C/C=C/C=C/C=C/C=C/C=C/C=C/[C@H](O[C@@H]2O[C@H](C)[C@@H](O)[C@H](N)[C@@H]2O)C[C@@H]2O[C@](O)(C[C@@H](O)C[C@@H](O)[C@H](O)CC[C@@H](O)C[C@@H](O)CC(=O)O[C@H]1C)C[C@H](O)[C@H]2C(=O)O [AMPHOTERICIN B]	–
